Like-named read-outs stand apart in the source and are kept apart here.
Key:
KPC-2 [1] = target: T1, KPC-2 (Klebsiella pneumoniae, UniProt Q9F663); conditions: KPC-2 20 mol%; warhead 3 + alkyne cluster; 37 °C, 24 h
T1 construct: made in house
Protocol: Starting from the azido-functionalised boronic acid 3, optimised conditions (see SI Table S2) were applied in combination with the 90-component alkyne library. The reactions were conducted in 0.2 mL microtubes in a 95:5 sodium phosphate 50 mM pH 7.0:DMSO mixture (final volume 100 µL), stirring at 300 rpm at 37 °C for 24 h (Scheme 1).
The experiments were conducted in triplicate, using a reaction mixture containing one equivalent of warhead 3, five equivalents of each alkyne cluster (9 alkynes), and 20 mol% KPC-2 as the catalyst. Product formation was monitored directly from the crude mixture using a hybrid quadrupole orbitrap LC–MS system in the ESI+ or ESI- mode after 24 h. Peak areas of the desired products were compared across three conditions: with KPC-2, without any enzyme, and with bovine serum albumin (BSA). […] The resulting ratio, named as the amplification coefficient (AC), was calculated from the peak area of the product obtained in the presence of KPC-2 vs. the one acquired with the controls.
(§1) Binary and multicomponent KTGS. […] The microtube was shaken at 300 rpm at 37 °C for 24 h. Reactions were transferred into a LC–MS vial and directly injected (10 µL) for liquid chromatography–mass spectrometry (LC–MS). Reactions were analysed with an Ultimate 3000 UHPLC coupled to a Q-exactive hybrid quadrupole-orbitrap mass spectrometer via an HESI-II heated electrospray ionisation source. The chromatographic separation was performed injecting a 10 µL sample volume on a Hypersil Gold C18 100 × 2.1 mm, 1.9 µm column (Thermo Fisher Scientific), kept at 30 °C eluting with 0.3 mL/min flow of ultrapure water (A) and methanol (B), both with 0.1% formic acid as mobile phase. […] A data-dependent mass spectrometric data acquisition strategy was used for full MS/DD-MS2. […] An inclusion list was eventually used to target the MS2 spectra acquisition of preferred ion species. Detection was based on calculated [M+H]^+ and [M−H]^− molecular ions with a 5 ppm accuracy tolerance for their respective ion chromatogram extraction. Peak retention time and area of detected target compounds was used for their detection and semi-quantitative evaluation in between reaction batches.
(§2) For controls (buffer and BSA), AmpC/KPC-2 is replaced with no enzyme (buffer volume 95 µL) and BSA (stock 100 µM, final concentration 5 µM, buffer volume 90 µL). Hits were identified in each cluster by mass and retention time and compared with both controls (buffer and BSA) and synthetically prepared triazoles obtained in mixtures.

[2] = tested on: C[C@@H](O)[C@H]1C(=O)N2C(C(=O)O)=C(S[C@@H]3CN[C@H](C(=O)N(C)C)C3)[C@H](C)[C@H]12; experiment: purified protein, by the assay type; conditions: other: IMP-1, HEPES 20 mM pH 7.0 + 20 µM Zn
AmpC [3] = target: T2, AmpC (Escherichia coli, UniProt P00811); set-up: made in house; conditions: AmpC 20 mol%; warhead 3 + alkyne cluster; 37 °C, 24 h
T2 sequence (P00811 20-377): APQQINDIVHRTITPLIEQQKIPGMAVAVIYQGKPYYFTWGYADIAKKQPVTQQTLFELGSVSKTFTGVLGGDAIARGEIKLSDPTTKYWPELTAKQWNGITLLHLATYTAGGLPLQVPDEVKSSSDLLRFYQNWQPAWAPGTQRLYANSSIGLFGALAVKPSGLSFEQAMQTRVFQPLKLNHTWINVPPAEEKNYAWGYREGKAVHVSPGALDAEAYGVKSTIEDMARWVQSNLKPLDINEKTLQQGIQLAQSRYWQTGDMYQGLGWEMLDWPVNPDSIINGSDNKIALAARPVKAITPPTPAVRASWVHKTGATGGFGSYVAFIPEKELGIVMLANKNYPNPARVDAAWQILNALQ
Protocol: Following the same conditions used for the multicomponent screening with KPC-2, the in situ click chemistry experiment was performed using AmpC as template.
as §1, §2

AmpC [4] = target: T2, AmpC; experiment: Competitive inhibition assay with nitrocefin, Ki; format: biochemical; set-up: made in house
Protocol: (§3) The β-lactamases used in the present study were from a Clinical Biochemistry Laboratory collection (Department of Biotechnological and Applied Clinical Sciences, University of L’Aquila, L’Aquila, Italy). […] The concentration of each enzyme was determined by a Bradford assay.
(§4) The plot v0/vi versus [I] yielded a straight line of slope KM/(KM + S) × Ki.
Figure 9 Compounds synthesised and their biological evaluation. AC = Amplification coefficient. […] Light blue indicates the compounds from the AmpC screening.

[5] = Stability in phosphate buffer by 1H NMR; format: physicochemical
Text: Previously, even a low level of affinity was reported to be sufficient for the target-templated reaction. Therefore, to enable in situ click chemistry within the β-lactamase’s binding pocket, a series of bifunctional “warheads” displaying two defined features were designed. Firstly, the presence of the boronic acid moiety serves as an anchor to the SBLs catalytic serine. Secondly, the azido functionalisation guarantees the clickable building block for generation of bioactive triazoles within the target active site. Thus, one 2-azido-1-acylamino-ethaneboronic acid and three azidomethyl-phenylboronic acids were synthesised and characterised (Figure 3). […] Herein, the amide side chain from cephalothin is well known to interact with various β-lactamases through van der Waals and H-bonding interactions and can aid the process of recognition within the target. […] Other warheads inspired by previously developed acyclic boronic acids were not considered in this manuscript and will be explored in future works.

[6] = tested on: O=C(Cc1cccs1)N[C@@H]1C(=O)N2C(C(=O)O)=C(/C=C/c3ccc([N+](=O)[O-])cc3[N+](=O)[O-])CS[C@H]12; experiment: KM of reporter substrate (Hanes-Woolf); format: biochemical; conditions: pH 7.0
Protocol: The β-lactamases used in the present study were from a Clinical Biochemistry Laboratory collection (Department of Biotechnological and Applied Clinical Sciences, University of L’Aquila, L’Aquila, Italy). All enzymes show a purity degree of higher than 95%. The concentration of each enzyme was determined by a Bradford assay.

[7] = tested on: O=C(Cc1cccs1)N[C@@H]1C(=O)N2C(C(=O)O)=C(/C=C/c3ccc([N+](=O)[O-])cc3[N+](=O)[O-])CS[C@H]12; experiment: purified protein, by the assay type; conditions: other: CTX-M-15, NaPi 50 mM pH 7.0
KPC-2 [8] = target: T1, KPC-2; experiment: Competitive inhibition assay with nitrocefin, Ki; format: biochemical
Protocol: as §3, §4
AC = Amplification coefficient. In the AC column, between brackets reports the regioisomeric ratio observed (1,4- vs. 1,5-) and bold reports the synthesised regioisomer. Light blue indicates the compounds obtained from the KPC-2 screening.

IMP-1 = target: T3, IMP-1 (Serratia marcescens, UniProt P52699); experiment: % inhibition at fixed concentration; format: biochemical
T3 construct: made in house
Protocol: (§5) Selection of an appropriate warhead-bearing reagent is crucial for achieving a successful in situ click chemistry. Thus, we assessed the inhibitory activity of the selected warheads against a pool of different β-lactamases to verify their binding specificity for the target. The affinity (inhibitory ability) of 2-4 against 12 representative β-lactamases from class A, B, C, and D was assessed as the percentage of inhibition at a fixed concentration of 200 µM (Table 1).
as §3, §4
(§6) For the β-lactamases test at a fixed concentration previously reported in Table 1, the following conditions were applied (Table 3): […]

KPC-53 = KPC-53 (Klebsiella pneumoniae, UniProt Q9F663, DUP166-167/H272Y); experiment: % inhibition at fixed concentration; format: biochemical
Protocol: as §5, §3, §4, §6

OXA-24 = OXA-24 (Acinetobacter baumannii, UniProt Q8RLA6); experiment: % inhibition at fixed concentration; format: biochemical
Protocol: as §5, §3, §4, §6

KPC-2 [9] = target: T1, KPC-2; experiment: % inhibition at fixed concentration; format: biochemical
Protocol: as §5, §3, §4, §6

CTX-M-15 = target: T4, CTX-M-15 (Escherichia coli, UniProt Q9EXV5); experiment: % inhibition at fixed concentration; format: biochemical
T4 construct: made in house
T4 sequence (Q9EXV5 entry or part of it): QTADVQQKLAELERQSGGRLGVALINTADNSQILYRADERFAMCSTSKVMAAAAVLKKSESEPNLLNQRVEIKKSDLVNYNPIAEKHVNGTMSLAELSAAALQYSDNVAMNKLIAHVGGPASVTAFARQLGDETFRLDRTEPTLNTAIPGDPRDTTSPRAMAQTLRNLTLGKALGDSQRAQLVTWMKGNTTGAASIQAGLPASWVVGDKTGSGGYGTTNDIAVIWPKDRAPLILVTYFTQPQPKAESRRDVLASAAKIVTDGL
Protocol: as §5, §3, §4, §6

VIM-1 = target: T5, VIM-1 (Pseudomonas aeruginosa, UniProt A0A0F7KYQ8); experiment: % inhibition at fixed concentration; format: biochemical
T5 construct: made in house
Protocol: as §5, §3, §4, §6

OXA-48 = OXA-48 (Klebsiella pneumoniae, UniProt Q6XEC0); experiment: % inhibition at fixed concentration; format: biochemical; conditions: OXA-48, class D; inhibitor 200 µM; substrate IMI
Protocol: as §5, §3, §4, §6

CMY-2 = CMY-2 (Klebsiella pneumoniae, UniProt Q48434); experiment: % inhibition at fixed concentration; format: biochemical
Protocol: as §5, §3, §4, §6

ADC-25 = ADC-25 (Acinetobacter baumannii, UniProt A8QIF8); experiment: % inhibition at fixed concentration; format: biochemical
Protocol: as §5, §3, §4, §6

KPC-2 [10] = target: T1, KPC-2; set-up: method as in PMID 35792385; conditions: ref [58]; cited from earlier work
AmpC [11] = target: T2, AmpC; experiment: % inhibition at fixed concentration; format: biochemical; set-up: made in house
Text: Selection of an appropriate warhead-bearing reagent is crucial for achieving a successful in situ click chemistry. Thus, we assessed the inhibitory activity of the selected warheads against a pool of different β-lactamases to verify their binding specificity for the target. […]
as §3, §4, §6

SHV-12 = SHV-12 (Klebsiella pneumoniae, UniProt P0AD64, E235K/G234S/L31Q); experiment: % inhibition at fixed concentration; format: biochemical; conditions: SHV-12, class A; inhibitor 200 µM; substrate NCF
NDM-1 = NDM-1 (Klebsiella pneumoniae, UniProt C7C422); experiment: % inhibition at fixed concentration; format: biochemical; set-up: made in house
Protocol: as §5, §3, §4, §6

For `C#CCNS(=O)(=O)Cc1cccc(C(=O)OC)c1` [Al-57], the “AC (amplification coefficient)” value (KPC-2 [1]) was “exceeding three”.

In the case of IMP-1 (Serratia marcescens), the Km [2] is reported as 30 ± 1 µM µM.

In the case of `C#CCS(=O)(=O)c1ccccc1` [Al-39], the “AC (amplification coefficient)” value (KPC-2 [1]) is reported as “exceeding three”.

In the case of `COC(=O)c1ccc(C(=O)NCc2cn(Cc3cccc(B(O)O)c3)nn2)cc1` [compound 12], the “AC (amplification coefficient)” value (AmpC [3]) is reported as 3-4 and the Ki (AmpC [4]; AmpC, values in nM) is reported as 400 nM.

For `C#CCOc1cccc(C(N)=O)c1` [Al-32], the “AC (amplification coefficient)” value (KPC-2 [1]) was “exceeding three”.

With `[N-]=[N+]=NCC(NC(=O)Cc1cccs1)B(O)O` (stereo not drawn) [compound 1] the “stability in phosphate buffer” value [5] was “partially degrades”.

With ADC-25 (Acinetobacter baumannii) the Km [6] was 120 ± 3 µM µM.

Compound CTX-M-15 (Escherichia coli) has a Km [7] of 35 ± 1 µM µM.

For `CC(C)CC(O)c1cn(Cc2cccc(B(O)O)c2)nn1` (stereo not drawn) [compound 9], the Ki (KPC-2 [8]) was 5600 ± 300 nM and the Ki (AmpC [4]) was 11000 nM.

In the case of `O=C(CCC1CCCCC1)NCc1cn(Cc2cccc(B(O)O)c2)nn1` [compound 13], the Ki (AmpC [4]; AmpC, values in nM) is reported as 800 nM.

Work on `O=S(=O)(NCc1cn(Cc2cccc(B(O)O)c2)nn1)C1CCCCC1` [compound 10] yielded a Ki (KPC-2 [8]) of 670 ± 100 nM and a Ki (AmpC [4]; AmpC, values in nM) of 600 nM.

`[N-]=[N+]=NCc1cccc(B(O)O)c1` [compound 3, (3-(azidomethyl)phenyl)boronic acid] showed an inhibition at 200 µM (IMP-1) of 11%, an inhibition at 200 µM (KPC-53) of 65% and an inhibition at 200 µM (OXA-24) of 24%. For the same compound, the inhibition at 100 µM (KPC-2 [9]) was 76%, the inhibition at 200 µM (CTX-M-15) was 42% and the inhibition at 200 µM (VIM-1) was 24%. For the same compound, the inhibition at 200 µM (OXA-48) was 2%, the inhibition at 200 µM (CMY-2) was 79% and the inhibition at 200 µM (ADC-25) was 67%. For the same compound, the Ki (KPC-2 [8]) was 2300 nM, the Ki (AmpC [4]; AmpC, values in nM) was 700 nM and the “activity vs. KPC-2” value (KPC-2 [10]) was “sub-µM”. The inhibition at 100 µM (AmpC [11]) was 100%, the “% of inhibition” value (AmpC [11]; AmpC, class C, inhibitor 100 µM, substrate NCF) was “completely inhibits” and the “% of inhibition” value (SHV-12) was 38%. The inhibition at 200 µM (NDM-1) was 20%.
